Laboratory results taken from PubChem BioAssay AID1963834 (Molecular Pharmacology Branch, DTP, NCI, 2024).
“And” between values parts separate entries of the source, which are not always exact repeats. Equal values may be shown once.

Tested on: 873145-292-R-J1-PDC complex spheroid viability
Assay: Anticancer human tumor 873145-292-R-J1-PDC patient-derived renal clear cell carcinoma cell line growth inhibition [POLQ]
Conditions: for viability, T/C: stronger effect = lower value; for IC50: curve of compound
Description: Multicellular complex tumor spheroid response to Polymerase (POL) inhibitors (novobiocin, ART-558, RP6685) in combination with a variety of drugs and investigational agents in selected tumor cell lines
The POL inhibitors (novobiocin, ART-558, and RP6685) were evaluated both individually and in combination with standard of care and investigational anticancer small molecules within a complex spheroid model of solid tumors. . Complex spheroids include a stromal component modeled by human endothelial cells (HUVEC) and fibroblasts modeled by human mesenchymal stem cells (MSCs). The concentration ranges selected for each drug and investigational agent were based upon clinically achievable concentrations if the clinical Cmax of the agent was known.
Compounds. The drugs and investigational agents: novobiocin (NSC847541), ART-558 (NSC835418), RP-6685 (NSC848927), peposertib (NSC802822), ceralasertib (NSC780249), elimusertib (NSC800525), camonsertib (NSC841442), AZD-1390 (NSC803789), olaparib (NSC753686), talazoparib (NSC767125), rucaparib (NSC756644), sotorasib (NSC818433), MRTX-1133 (NSC836407), SN-38 (NSC673596), topotecan (NSC609699), epotoside (NSC141540), doxorubicin (NSC123127), gemcitabine (NSC613327), 5-fluorouracil (NSC19893), paclitaxel (NSC125973), vemurafenib (NSC761431), MSA-2 (NSC828583), SN-011 (NSC837082), adavosertib (NSC754352), prexasertib (NSC758257), carboplatin (NSC241240) and oxaliplatin (NSC266046), were obtained from the National Cancer Institute (NCI) Developmental Therapeutics Program Chemical Repository (21). The FDA-approved anticancer drug set is available from the Developmental Therapeutics Program at https://dtp.cancer.gov/organization/dscb/obtaining/. […] The stock solutions were prepared in dimethyl sulfoxide (DMSO, Sigma-Aldrich, St. Louis, MO, cat. D2650), except for the platinum compounds which were prepared in saline (Quality Biological, Gaithersburg, MD, cat. 114-055-101), at 800-fold the tested concentration and stored at -70 degrees C prior to their use. All drugs and investigational agents were tested over a range starting from a high concentration at or near the clinical Cmax and decreasing in half-log increments. If the clinical Cmax for an agent had not been determined, the highest concentration tested was 10 microM, except for SN-38, which was tested at a high concentration of 1 microM.
Cell Culture. All cells were maintained in an incubator at 37 degrees C and 5% CO2 with 95% humidity. The PDC lines were cultured according to standard operating procedures established by the NCI PDMR (https://pdmr.cancer.gov). Table 3 of the manuscript, lists the cell lines along with the number of the three cell types plated to form the mct-spheroids and media for tumor cell growth. After thawing, all PDC lines, except 997537-175-T-J1-PDC and 415267-285-R-J2-PDC, were cultured in Matrigel-coated flasks prepared with a working solution of 1X Ham's F-12 nutrient mix, without supplementation (Thermo Fisher Scientific, cat. 11765054), 100 U/mL penicillin-streptomycin (Thermo Fisher Scientific, cat. 15140122), and 2.5% Matrigel (Corning Inc., Corning, NY, cat. 354248) for the first three passages. The two PDC lines 997537-175-T-J1-PDC and 415267-285-R-J2-PDC were cultured on uncoated flasks. The 857933-349-R-J2-PDC line was cultured in 6C/Colon 1B media containing advanced DMEM/F-12 (Thermo Fisher Scientific, cat. 12634028), 10 mM HEPES (Thermo Fisher Scientific, cat. 15630080), 1X GlutaMAX supplement (Thermo Fisher Scientific, cat. 35050061), 0.1 mg/mL primocin (InvivoGen, San Diego, CA, cat. ant-pm-2), 10% defined fetal bovine serum, heat inactivated (HyClone Laboratories Inc., Logan, UT, cat. SH30070.03HI), 50% L-WRN conditioned media (ATCC, cat. CRL-3276), 1.25 mM N-Acetyl-L-cysteine (Sigma-Aldrich, cat. A9165), 10 mM nicotinamide (Sigma-Aldrich, cat. N0636), 1X B-27 supplement (Thermo Fisher Scientific, cat. 17504044), 1X N-2 supplement (Thermo Fisher Scientific, cat. […]
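Also: spheroids exposed to compounds for 7 days before viability readout.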
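For viability, T/C in this document: luminescence signal used as surrogate for viable cell content; 100% = DMSO vehicle control viability.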

SMILES	viability, T/C (compound 0.0316 µM)	viability, T/C (compound 0.1 µM)	viability, T/C (compound 0.316 µM)	viability, T/C (compound 1 µM)	viability, T/C (compound 3.16 µM)	viability, T/C (compound 10 µM)	IC50
C#Cc1c(F)ccc2cc(O)cc(-c3ncc4c(N5CC6CCC(C5)N6)nc(OCC56CCCN5CC(F)C6)nc4c3F)c12 (stereo unspecified)	99.2% and 106% and 107%	104% and 107% and 91.8%	90.8% and 96.4% and 88.5%	89% and 91.7% and 89.9%	91.4% and 107% and 86%	85% and 95.8% and 82.9%	> 10000 nM
C=CC(=O)N1CCN(c2nc(=O)n(-c3c(C)ccnc3C(C)C)c3nc(-c4c(O)cccc4F)c(F)cc23)C(C)C1 (stereo unspecified)	98.3% and 103% and 94.9%	99.5% and 99.4% and 98.3%	107% and 125% and 109%	118% and 113% (2×)	137% and 134% and 116%	121% and 145% and 124%	> 10000 nM
CC(C)n1c(=O)n(C)c2cnc3cc(F)c(-c4ccc(OCCCN5CCCCC5)nc4)cc3c21	97.8% and 99.3% and 112%	103% and 100% and 93.3%	94% and 101% and 112%	92.8% and 108% and 100%	94.8% (2×) and 96.1%	77.7% and 95.8% and 91.3%	> 10000 nM
CC1COCCN1c1cc(-c2ccnn2C)c2ccnc(-c3ccn[nH]3)c2n1 (stereo unspecified)	88.9% and 83.1% and 97%	77.3% and 74.3% and 90%	67.5% and 67.3% and 68.5%	51.8% and 50.8% and 56.1%	40% and 41.9% and 52.3%	39.3% and 41.4% and 57.8%	1210 nM and 1200 nM and > 10000 nM
CC1COCCN1c1cc(C2(O)CC3CCC(C2)O3)c2cnn(-c3ccn[nH]3)c2n1 (stereo unspecified)	86.7% and 86.2% and 97.9%	84.8% and 72% and 82.1%	56.8% and 49.1% and 60.9%	48.6% and 43% and 55.3%	40% and 39.9% and 48.1%	31.9% and 32.5% and 41%	741 nM and 385 nM and 1810 nM
CCc1cc2c(N3CCc4c(cc(Cn5ccnc5)cc4-c4cn(C)nc4C(F)(F)F)C3=O)cc(C)nc2c(OC)n1	95.3% and 101% and 104%	96.6% and 94.7% and 102%	88.5% and 93.9% and 90.2%	94.2% and 85.1% and 80.9%	85.1% and 79.1% and 86.5%	80.2% and 85.1% and 81%	> 10000 nM
CCc1cc2c(N3CCc4c(cc(Cn5ccnc5)cc4-c4cn(C)nc4C(F)(F)F)C3=O)ccnc2c(OC)n1	107% and 99% and 101%	89.9% and 92.2% and 96.8%	89.1% and 97.3% and 84.2%	92.1% and 87.7% and 87.1%	86.4% and 98% and 86.1%	75.7% and 91.9% and 81.5%	> 10000 nM
COc1cc2cc(C(=O)CCC(=O)O)sc2cc1OC	112% and 99.5% and 94.5%	107% and 103% and 89.5%	96.3% and 97.8% and 104%	101% and 96.7% and 102%	98.9% and 105% (2×)	99.8% and 101% and 109%	> 10000 nM
